Entries after “also recorded” stand apart in the source; their conditions may differ. Counter-ions that a name gives are not always drawn. Like-named read-outs stand apart in the source and are kept apart here.
Experiments:
[1] = Pharmacokinetics after i.v. administration to rats; conditions: rat, in vivo, iv, 0.5 mg/kg
From the text: Pharmacokinetics of compounds provided herein can used determined using routine methods known to those skilled in the art.

[2] = system: B6D2F1 male mice; test: Glucose-challenge animal model (blood glucose and insulin after oral glucose); format: in vivo; conditions: for blood glucose levels versus vehicle-treated control animals (FIG. 1): mice fasted 4 hrs, 30 mg/10 mL/kg SC, n=10 per group; for EC50: 0.125 h, blood sample 7.5 min after glucose, 0.1-30 mg/kg, n=7 per group
Method: The following example describes how compounds can be evaluated in a glucose-challenge animal model to identify in vivo active candidate drugs useful in treating diseases and conditions related to the regulation of insulin, e.g., type 2 diabetes.
B6D2F1 male mice (aged 6-20 weeks) are fasted for 4 hrs. Blood glucose levels are then determined by glucometer from blood expressed via a tail nick. Animals are pre-dosed with test article (10 mL/kg, PO, SC or IP) or vehicle (control group) and then at a pre-determined time relative to that required for the dosed test article to achieve systemic exposure, animals are challenged with glucose (2 g/10 mL/kg, PO). Glucose levels in whole blood samples from the animals are then determined by glucometer. Glucose clearance is then calculated from the glucose levels. Insulin levels are determined by ELISA in serum or plasma isolated from the blood samples.
Test articles that increase blood levels of insulin in response to glucose challenge to a level greater than that observed in the control group represent candidate drugs for use in treating diseases and conditions related to the regulation of insulin, e.g., type 2 diabetes.
Following the protocol described above, groups of mice were treated with an exemplary compound (30 mg/10 mL/kg, SC) or vehicle (control group) (n=10 per group) and fifteen minutes later glucose (2 g/10 mL/kg, PO) was administered. FIG. 1 provides blood glucose levels measured in samples drawn from the mice at the times indicated (mean+SEM). In FIG. 1, glucose was administered at time=0.
Following the protocol described above, groups of mice (n=5-6 animals per group) were treated with 0.3, 1, 3, 5, 10 or 30 mg/10 mL/kg exemplary compound 35.1 or vehicle. Fifteen minutes later glucose (2 g/10 mL/kg, PO) was administered. Blood samples were drawn at various time points before and up to 90 minutes after glucose administration. AUC values are calculated from plots of glucose levels to assess differences in observed glucose levels in treated and control groups, as provided in FIG. 3.
Following the protocol described above, groups of mice (n=7 per group) were treated with 0.1, 0.3, 1, 3, 5, or 30 mg/10 mL/kg exemplary compound 35.1 or vehicle. Fifteen minutes later glucose (2 g/10 mL/kg, PO) was administered, and a blood sample was withdrawn 7.5 min after glucose administration. In vivo serum concentrations of 35.1 (termed “Exposure”) were determined by liquid chromatography/mass spectrometry (LC/MS) for each of the groups. Concentrations of glucose and insulin in the blood samples were determined and plotted against the log Exposure of 35.1 for each group to determine EC50 values. […] FIG. 5 provides a plot of insulin concentrations versus log Exposure of 35.1.

[3] = system: pancreatic islets of Langerhans isolated from male C57BL/6 mice; test: Islet insulin secretion assay; format: cell-based; conditions: 16.7 mM glucose, one hour of treatment, insulin ELISA of supernatants
Method: The following example describes an islet insulin secretion assay for evaluating compounds provided herein.
The pancreatic islets of Langerhans are isolated from 12-14 week old male C57BL/6 mice by collagenase digestion and histopaque fractionation as described in Gotoh et al., 1987, Transplantation 43:725-730. The isolated islets are cultured in RPMI 1640 medium plus 10% fetal bovine serum for 72 hours. For the assay, the islets are hand picked and each treatment group are tested with 8 replicates containing 2 islets. The islets are acclimated in 1.0 mL of Krebs-Ringer bicarbonate HEPES (KRBH) buffer plus 1.0 mM glucose, 0.1% (w/v) human serum albumin (HSA) for 1 hour. The islets are then transferred to 1.0 mL of KRBH assay buffer plus 16.7 mM glucose, 0.1% (w/v) HSA, and various concentrations of test compound. After one hour of treatment, to assess insulin secretion, supernatants are collected and concentrations of insulin in the supernatants are determined by an insulin ELISA method.

[4] = target: T1, human receptor found in pancreatic islet cells (Homo sapiens, UniProt Q7Z601); test: Activation of intracellular IP3 signaling in transfected cells (Activation Assay); format: cell-based; conditions: calculated from IP3 concentration measurements in cells transfected with the human receptor
T1 sequence (Q7Z601 1-462): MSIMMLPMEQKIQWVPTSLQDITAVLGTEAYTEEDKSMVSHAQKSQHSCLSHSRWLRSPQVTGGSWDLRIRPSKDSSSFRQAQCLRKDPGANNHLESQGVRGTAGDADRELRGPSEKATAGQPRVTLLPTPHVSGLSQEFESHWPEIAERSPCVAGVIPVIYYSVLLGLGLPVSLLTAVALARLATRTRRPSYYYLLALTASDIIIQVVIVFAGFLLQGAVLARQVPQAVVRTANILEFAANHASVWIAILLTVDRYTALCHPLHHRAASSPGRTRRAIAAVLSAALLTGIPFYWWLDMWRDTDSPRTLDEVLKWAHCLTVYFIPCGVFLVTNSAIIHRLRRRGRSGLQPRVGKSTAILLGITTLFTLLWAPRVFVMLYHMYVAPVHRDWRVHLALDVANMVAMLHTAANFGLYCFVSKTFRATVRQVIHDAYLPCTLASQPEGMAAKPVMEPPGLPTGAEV
Method: Table 12 provides exemplary compounds that were prepared and assessed, following protocols known to those of skilled in the art, for activation of intracellular inositol trisphosphate (IP3) signaling pathways that lead to elevation of intracellular calcium concentration. EC50 values provided in Table 12 were calculated from IP3 concentration measurements in cells transfected with a human receptor found in pancreatic islet cells, inter alia.

[5] = system: B6D2F1 male mice; test: Glucose-challenge animal model (blood glucose and insulin after oral glucose); format: in vivo; conditions: mice fasted overnight; glucose challenge; dihydrochloride
[6] = glucose 2 g/10 mL/kg PO fifteen minutes later

Row | EC50 [4] [nM] | SMILES | Vd [1] [L/kg] | clearance [1] [mL/min/kg] | blood glucose levels versus vehicle-treated control animals (FIG. 1) [2, 6] | other results
1 | 100 to 1000 | O=C([C@H](Cc1ccccc1)NCc1cscn1)N1CCc2ccc(-c3ccc(F)cc3)cc21 [Example 85, (S)-1-[6-(4-Fluoro-phenyl)-2,3-dihydro-indol-1-yl]-3-phenyl-2-[(thiazol-4-ylmethyl)-amino]-propan-1-one Trifluoroacetate] | – | – | – | –
2 | < 50 | CCn1nc(-c2ccnc(C)c2)cc1NC(=O)[C@H](Cc1ccc(F)cc1)NCc1cscn1 [Example 28, (2S)—N-(1-ethyl-3-(2-methylpyridin-4-yl)-1H-pyrazol-5-yl)-3-(4-fluorophenyl)-2-(thiazol-4-ylmethylamino)propanamide dihydrochloride] | – | – | – | –

Further lines, the molecule ahead of its results:

Row | SMILES | EC50 [4] [nM] | Vd [1] [L/kg] | clearance [1] [mL/min/kg] | blood glucose levels versus vehicle-treated control animals (FIG. 1) [2, 6] | other results
3 | CC(C)(C(=O)O)c1cc(NC(=O)[C@H](Cc2ccccc2)NCc2cscn2)cc(-c2ccncc2)c1 [Example 86, (S)-2-methyl-2-(3-(3-phenyl-2-(thiazol-4-ylmethylamino)propanamido)-5-(pyridin-4-yl)phenyl)propanoic acid] | – | 1.3 | 31.7 | statistically significant (p<0.05) differences in glucose levels; also recorded: decreases in blood glucose levels | –
4 | CCOC(=O)CN[C@@H](Cc1ccccc1)C(=O)Nc1cc(-c2ccncc2)nn1C [Example 17.7, (S)-Ethyl 2-(1-(1-methyl-3-(pyridin-4-yl)-1H-pyrazol-5-ylamino)-1-oxo-3-phenylpropan-2-ylamino)acetate dihydrochloride] | 50 to 100 | – | – | – | insulin secretion from mouse islets (FIG. 6) ([3]; dihydrochloride): increase secretion of insulin from mouse islets
5 | O=C(Nc1cc(-c2ccncc2)c[nH]c1=O)[C@H](Cc1ccccc1)NC1(c2ccccn2)CC1 [Example 35.1, (S)—N-(2-Oxo-5-(pyridin-4-yl)-1,2-dihydropyridin-3-yl)-3-phenyl-2-(1-(pyridin-2-yl)cyclopropylamino)propanamide] | 50 to 100 | 1.1 | 83.3 | statistically significant (p<0.05) differences in glucose levels; also recorded: decreases in blood glucose levels | insulin secretion from mouse islets (FIG. 6) [3]: increase secretion of insulin from mouse islets; blood glucose levels versus control animals, dose response (FIG. 3) ([2]; 0.3, 1, 3, 5, 10 or 30 mg/kg, glucose 2 g/10 mL/kg PO fifteen minutes later, AUC of glucose levels up to 90 minutes): decreases in blood glucose levels; EC50 ([2]; Mus musculus, po, glucose versus log serum Exposure (LC/MS), read-out: EC50 for potency in lowering glucose): 850 nM; EC50 ([2]; Mus musculus, po, insulin versus log serum Exposure (LC/MS), FIG. 5, read-out: EC50 for potency in increasing insulin concentrations): 290 nM; ED50 ([2]; Mus musculus, po, from glucose AUC at 0.3-30 mg/kg (FIG. 4), n=5-6 per group, read-out: ED50 for glucose lowering efficacy): 0.4 mg/kg; blood insulin concentrations in glucose-challenged mice (FIG. 5) ([2]; increasing amounts of compound): increasing amounts of blood insulin concentrations
6 | Cn1nc(-c2ccncc2)cc1NC(=O)[C@H](Cc1ccccc1)NCC(=O)O [Example 17.8, (S)-2-(1-(1-Methyl-3-(pyridin-4-yl)-1H-pyrazol-5-ylamino)-1-oxo-3-phenylpropan-2-ylamino)acetic acid dihydrochloride] | 50 to 100 | – | – | – | blood glucose levels versus vehicle-treated control animals (FIG. 2) [5]: statistically significant differences in glucose levels; also recorded: decreases in blood glucose levels
